# Measurements published in the Kinase Knowledgebase extract (Sharma et al. 2016).
# “And” between values parts separate entries of the source, which are not always exact repeats. Identical values can stand only once.
# Assays:
# PIK3CA (human) = PIK3CA (human) (UniProt P42336); assay: Inhibition of PIK3CA Kinase Activity
# [1] = biological target: PIK3CA (human), P42336 [Antiproliferation of PI3K Mutated BT20 Cells]; assay: Cell-Based Assay
# Chain of PIK3CA (human), P42336 [Antiproliferation of PI3K Mutated BT20 Cells] (P42336 whole entry, looked up, change not shown): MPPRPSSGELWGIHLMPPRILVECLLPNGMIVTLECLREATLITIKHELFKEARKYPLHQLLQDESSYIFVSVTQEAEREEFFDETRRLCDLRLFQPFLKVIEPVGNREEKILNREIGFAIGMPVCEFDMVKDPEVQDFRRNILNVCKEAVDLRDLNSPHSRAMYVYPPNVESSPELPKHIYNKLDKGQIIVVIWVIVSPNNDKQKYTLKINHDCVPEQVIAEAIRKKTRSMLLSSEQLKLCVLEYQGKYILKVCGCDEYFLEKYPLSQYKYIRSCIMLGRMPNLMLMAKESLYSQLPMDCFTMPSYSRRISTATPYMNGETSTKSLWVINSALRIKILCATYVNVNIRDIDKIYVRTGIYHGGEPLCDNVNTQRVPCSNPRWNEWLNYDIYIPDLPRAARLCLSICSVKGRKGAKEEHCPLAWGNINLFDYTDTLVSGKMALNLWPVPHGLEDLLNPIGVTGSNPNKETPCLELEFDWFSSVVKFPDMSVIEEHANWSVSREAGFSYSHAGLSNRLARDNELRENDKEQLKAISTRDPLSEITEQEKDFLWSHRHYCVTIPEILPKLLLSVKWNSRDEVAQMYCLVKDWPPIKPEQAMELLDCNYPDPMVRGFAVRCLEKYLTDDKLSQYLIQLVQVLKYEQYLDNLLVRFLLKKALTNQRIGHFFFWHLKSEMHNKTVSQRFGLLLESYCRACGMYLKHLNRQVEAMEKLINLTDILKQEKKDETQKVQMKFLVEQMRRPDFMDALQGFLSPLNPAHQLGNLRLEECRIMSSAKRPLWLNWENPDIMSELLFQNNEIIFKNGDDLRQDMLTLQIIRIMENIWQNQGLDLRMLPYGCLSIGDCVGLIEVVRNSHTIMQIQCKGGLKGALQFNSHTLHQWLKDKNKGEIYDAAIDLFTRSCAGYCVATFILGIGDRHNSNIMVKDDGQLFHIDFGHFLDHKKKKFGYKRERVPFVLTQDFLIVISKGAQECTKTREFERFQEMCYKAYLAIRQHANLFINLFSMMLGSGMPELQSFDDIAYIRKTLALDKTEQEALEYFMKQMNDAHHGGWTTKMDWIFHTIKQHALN
# Chain of PIK3CA (human) (P42336 whole entry, looked up): as the sequence (P42336 whole entry, looked up, change not shown) above
SMILES,IC50 (PIK3CA (human)),IC50 [1]
COc1ccc(-c2cc3c(C)nc(N)nc3n(C3CCN(C(=O)OC(C)(C)C)C3)c2=O)cn1 (stereo not drawn),27 nM,172 nM
COc1ncc(-c2cc3c(C)nc(N)nc3n([C@H]3C[C@H](OCCO)C3)c2=O)cn1,6.65 nM,93.5 nM
Cc1nc(N)nc2c1cc(-c1cnn(C)c1)c(=O)n2[C@H]1CC[C@H](OCCO)CC1,22.3 nM,226 nM
COc1ccc(-c2cc3c(C)nc(N)nc3n(CC3CCCO3)c2=O)cn1 (stereo not drawn),21 nM,120 nM
COc1ncc(-c2cc3c(C)nc(N)nc3n([C@H]3C[C@H](OCCO)C3)c2=O)cc1F,3.11 nM,14.6 nM
Cc1nc(N)nc2c1cc(-c1cn[nH]c1)c(=O)n2C1CN(C(=O)OC(C)(C)C)C1,120 nM,41.5 nM
CCN(CC)C(=O)OCn1cc(-c2cc3c(C)nc(N)nc3n(C(C)C)c2=O)nn1,3300 nM,10000 nM
CNc1nc(C)c2cc(-c3cnc4[nH]ccc4c3)c(=O)n(CC3CCOC3)c2n1 (stereo not drawn),1.6 nM,13.5 nM
COc1ccc(-c2cc3c(C)nc(N)nc3n(CC3(F)CCOCC3)c2=O)cn1,18 nM,316 nM
COc1ccc(-c2cc3c(C)nc(N)nc3n(C(C)C)c2=O)cn1,11 nM,64 nM
COc1ccc(-c2cc3c(C)nc(N)nc3n([C@@H]3CC[C@@H](O)C3)c2=O)cn1,4.6 nM,87.6 nM
Cc1nc(N)nc2c1cc(-c1cnc3[nH]ccc3c1)c(=O)n2[C@H]1CC[C@H](O)CC1,1.3 nM,31.9 nM
Cc1cc(-c2cc3c(C)nc(N)nc3n(C3CCCC3)c2=O)cnc1N(C)C,11 nM,23.1 nM
CNc1nc(C)c2cc(-c3cnn(CCO)c3)c(=O)n(C3CCCC3)c2n1,24 nM,234 nM
CNc1nc(C)c2cc(-c3ccc(OC)nc3)c(=O)n(CC3CCOC3)c2n1 (stereo not drawn),4.6 nM,45.6 nM
COc1ccc(-c2cc3c(C)nc(N)nc3n([C@@H]3CC[C@H](O)C3)c2=O)cn1,11 nM,82.9 nM
COc1ccc(-c2cc3c(C)nc(NCC(C)(C)O)nc3n(C3CCCC3)c2=O)cn1,830 nM,5750 nM
CNc1nc(C)c2cc(C(=O)Nc3ccon3)c(=O)n(C3CCCC3)c2n1,5 nM,72.2 nM

SMILES,IC50 (PIK3CA (human)),IC50 [1]
CNc1nc(C)c2cc(C#N)c(=O)n(C3CCCC3)c2n1,60 nM,603 nM
COc1ncc(-c2cc3c(C)nc(N)nc3n([C@H]3CC[C@@H](OCCO)CC3)c2=O)cn1,5.31 nM,15.3 nM
Cc1nc(N)nc2c1cc(Br)c(=O)n2[C@H]1CC[C@H](O)CC1,44 nM,305 nM
COc1ccc(-c2cc3c(C)nc(N)nc3n(C3CN(C(=O)OC(C)(C)C)C3)c2=O)cn1,29 nM,318 nM
Cc1nc(N)nc2c1cc(-c1ccc(OC(C)C)nc1)c(=O)n2[C@H]1CC[C@H](O)CC1,9.4 nM,71.8 nM
COc1ncccc1-c1cc2c(C)nc(N)nc2n(C2CCCC2)c1=O,856 nM,5480 nM
Cc1nc(N)nc2c1cc(-c1cnc3[nH]ccc3c1)c(=O)n2C(C)C,2.3 nM,6.77 nM
Cc1nc(N)nc2c1cc(Br)c(=O)n2C1CCOC1 (stereo not drawn),230 nM,1670 nM
COc1ccc(-c2cc3c(C)nc(N)nc3n(CC(C)(C)F)c2=O)cn1,30 nM,437 nM
Cc1nc(N)nc2c1cc(-c1ccc(C#N)nc1)c(=O)n2[C@H]1CC[C@H](O)CC1,470 nM,2690 nM
CNc1nc(C)c2cc(-c3ccc(OC)nc3)c(=O)n(C(C)C)c2n1,110 nM and 21 nM,95.2 nM
Cc1nc(N)nc2c1cc(-c1cccnc1N)c(=O)n2C1CCCC1,1430 nM,9010 nM
C=CCn1c(=O)c(-c2ccc(OC)nc2)cc2c(C)nc(NC)nc21,17 nM,106 nM
Cc1nc(N)nc2c1cc(-c1cnc3[nH]ccc3c1)c(=O)n2[C@@H]1CC[C@@H](O)C1,1.2 nM,55.8 nM
COc1ccc(-c2cc3c(C)nc(NCC(F)F)nc3n([C@H]3CC[C@H](O)CC3)c2=O)cn1,12 nM,46.8 nM
Cc1nc(N)nc2c1cc(-c1cnc3[nH]ccc3c1)c(=O)n2C1CN(C(=O)OC(C)(C)C)C1,38 nM,256 nM
Cc1nc(N)nc2c1cc(Br)c(=O)n2CC(C)(C)O,680 nM,2360 nM
CNc1nc(C)c2cc(-c3cnc(N)c(OC[C@H](C)N)n3)c(=O)n(C3CCCC3)c2n1,400 nM,2330 nM

# Continued by falling IC50 [1], values first:
IC50 (PIK3CA (human)),IC50 [1],SMILES
46 nM,10000 nM,CNc1nc(C)c2cc(-c3cnn(CC(F)F)c3)c(=O)n(C3CCCC3)c2n1
100 nM,2130 nM,Cc1nc(N)nc2c1cc(Br)c(=O)n2CC1CCCO1 (stereo not drawn)
792 nM,1390 nM,CCNc1nc(C)c2cc(-c3cccc(OC)c3)c(=O)n(C3CCCC3)c2n1
48 nM,594 nM,CNc1nc(C)c2cc(Br)c(=O)n(CC3CCOC3)c2n1 (stereo not drawn)
62 nM,556 nM,Cc1nc(N)nc2c1cc(-c1c[nH]nn1)c(=O)n2C(C)C
45 nM,495 nM,Cc1nc(N)nc2c1cc(-c1cnn(CCO)c1)c(=O)n2C1CCCC1
18 nM,475 nM,Cc1nc(N)nc2c1cc(-c1cnn(C)c1)c(=O)n2[C@H]1CC[C@H](O)CC1
12 nM,397 nM,Cc1nc(N)nc2c1cc(-c1cnn(CC(F)F)c1)c(=O)n2C1CCCC1
130 nM,262 nM,COc1ccc(-c2cc3c(C)nc(N)nc3n(CC(F)(F)F)c2=O)cn1
67 nM,181 nM,CNc1nc(C)c2cc(-c3c[nH]c(C)n3)c(=O)n(C3CCCC3)c2n1
39.1 nM,74.2 nM,Cc1nc(N)nc2c1cc(-c1ccc(Cl)nc1)c(=O)n2C1CCCC1
1.77 nM,46.1 nM,CCNc1nc(C)c2cc(-c3cnc4[nH]ccc4c3)c(=O)n(C3CCCC3)c2n1
5.4 nM,36.6 nM,Cc1nc(N)nc2c1cc(-c1cnc3[nH]ccc3c1)c(=O)n2CC1CCCO1 (stereo not drawn)
2.9 nM,30.5 nM,Cc1nc(N)nc2c1cc(C(=O)Nc1ccn[nH]1)c(=O)n2C(C)C
1.59 nM,20.6 nM,CCNc1nc(C)c2cc(-c3cnc(OC)nc3)c(=O)n([C@H]3CC[C@H](O)CC3)c2n1
1.2 nM,20.4 nM,Cc1nc(N)nc2c1cc(-c1cnc3[nH]ccc3c1)c(=O)n2[C@@H]1CC[C@H](O)C1
4.3 nM,19.3 nM,COc1ccc(-c2cc3c(C)nc(N)nc3n(C3CCC(=O)CC3)c2=O)cn1
2.34 nM,16.4 nM,CNc1nc(C)c2cc(C(=O)Nc3cc[nH]n3)c(=O)n(C3CCCC3)c2n1
4.78 nM,14.7 nM,CNc1nc(C)c2cc(-c3cccc(CO)c3)c(=O)n(C3CCCC3)c2n1
6.2 nM,10.1 nM,CO[C@H]1CC[C@H](n2c(=O)c(-c3ccc(N(C)C)nc3)cc3c(C)nc(N)nc32)CC1
29.7 nM,9.1 nM,Cc1nc(N)nc2c1cc(-c1cn[nH]c1)c(=O)n2[C@H]1CC[C@@H](OCCO)CC1
0.788 nM,5.1 nM,CCNc1nc(C)c2cc(-c3cnc(OC)c(F)c3)c(=O)n([C@H]3CC[C@H](O)CC3)c2n1
0.48 nM,2.76 nM,Cc1nc(N)nc2c1cc(-c1cnc3[nH]ccc3c1)c(=O)n2C1CCCC1
